In PubChem BioAssay (NCI):
“And” between values parts separate entries of the source, which are not always exact repeats. Equal values may be shown once.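 Dose response: 5 concentrations. Exposure: 48 h. Format: 96-well plates. Endpoint: linear interpolation; highest concentration if not reached. Abbreviation: GI50, concentration required for 50% inhibition of growth. The concentration for full growth arrest is given as TGI.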

Tests used:
Assay in all cases: NCI tumour cell line growth inhibition, 48 h; in the data active = GI50 below about 0.43 µM; inactive = the rest
SW-620 colon = tested on: SW-620 colon
UACC-62 melanoma = tested on: UACC-62 melanoma
CAKI-1 renal = tested on: CAKI-1 renal
RPMI-8226 leukemia = tested on: RPMI-8226 leukemia
786-0 renal = tested on: 786-0 renal
SK-MEL-5 melanoma = tested on: SK-MEL-5 melanoma
EKVX NSCLC = tested on: EKVX NSCLC
BT-549 breast = tested on: BT-549 breast
K-562 leukemia = tested on: K-562 leukemia
U251 CNS = tested on: U251 CNS
HCT-15 colon = tested on: HCT-15 colon
MOLT-4 leukemia = tested on: MOLT-4 leukemia
PC-3 prostate = tested on: PC-3 prostate
SF-295 CNS = tested on: SF-295 CNS
SNB-19 CNS = tested on: SNB-19 CNS
A498 renal = tested on: A498 renal
HS 578T breast = tested on: HS 578T breast
SF-539 CNS = tested on: SF-539 CNS
SK-MEL-28 melanoma = tested on: SK-MEL-28 melanoma
HOP-62 NSCLC = tested on: HOP-62 NSCLC
DU-145 prostate = tested on: DU-145 prostate
LOX IMVI melanoma = tested on: LOX IMVI melanoma
NCI-H460 lung = tested on: NCI-H460 lung
KM12 colon = tested on: KM12 colon
TK-10 renal = tested on: TK-10 renal
T-47D breast = tested on: T-47D breast
NCI/ADR-RES ovarian = tested on: NCI/ADR-RES ovarian
HT29 colon = tested on: HT29 colon
HL-60(TB) leukemia = tested on: HL-60(TB) leukemia
IGROV1 ovarian = tested on: IGROV1 ovarian
MDA-MB-231 breast = tested on: MDA-MB-231 breast
OVCAR-3 ovarian = tested on: OVCAR-3 ovarian
NCI-H23 lung = tested on: NCI-H23 lung
SN12C renal = tested on: SN12C renal
OVCAR-8 ovarian = tested on: OVCAR-8 ovarian
HOP-92 NSCLC = tested on: HOP-92 NSCLC
OVCAR-5 ovarian = tested on: OVCAR-5 ovarian
MDA-MB-435 = tested on: MDA-MB-435
OVCAR-4 ovarian = tested on: OVCAR-4 ovarian
MCF7 breast = tested on: MCF7 breast
NCI-H226 lung = tested on: NCI-H226 lung
RXF 393 renal = tested on: RXF 393 renal
CCRF-CEM leukemia = tested on: CCRF-CEM leukemia
UACC-257 melanoma = tested on: UACC-257 melanoma
MALME-3M melanoma = tested on: MALME-3M melanoma
HCC-2998 colon = tested on: HCC-2998 colon
SK-MEL-2 melanoma = tested on: SK-MEL-2 melanoma
M14 melanoma = tested on: M14 melanoma
SR leukemia = tested on: SR leukemia
ACHN renal = tested on: ACHN renal
COLO 205 colon = tested on: COLO 205 colon
NCI-H522 lung = tested on: NCI-H522 lung
SK-OV-3 ovarian = tested on: SK-OV-3 ovarian
HCT-116 colon = tested on: HCT-116 colon
SF-268 CNS = tested on: SF-268 CNS
A549 NSCLC = tested on: A549 NSCLC
UO-31 renal = tested on: UO-31 renal

O=C(NO)C(O)C(O)C(O)C(O)CO (stereo not drawn)
> 100 µM and 73.5 µM: TGI (HCT-116 colon)
> 21.5 µM: TGI (HL-60(TB) leukemia)
inactive: GI50 (SW-620 colon) > 100 µM | GI50 (UACC-62 melanoma) 84.2 µM and 38.6 µM | GI50 (CAKI-1 renal) 31.3 µM | GI50 (RPMI-8226 leukemia) > 100 µM | GI50 (786-0 renal) > 100 µM and 55.9 µM | GI50 (SK-MEL-5 melanoma) > 100 µM | GI50 (EKVX NSCLC) > 100 µM | GI50 (BT-549 breast) > 100 µM | GI50 (K-562 leukemia) > 87.6 µM and 47.1 µM | GI50 (U251 CNS) > 100 µM | GI50 (HCT-15 colon) > 100 µM | GI50 (MOLT-4 leukemia) > 100 µM | GI50 (PC-3 prostate) > 100 µM | GI50 (SNB-19 CNS) > 100 µM | GI50 (A498 renal) > 100 µM | GI50 (HS 578T breast) > 100 µM | GI50 (SF-539 CNS) > 100 µM | GI50 (SK-MEL-28 melanoma) > 100 µM | GI50 (HOP-62 NSCLC) > 92.5 µM and 68.3 µM | GI50 (DU-145 prostate) 40 µM and > 100 µM | GI50 (LOX IMVI melanoma) > 100 µM and 94.8 µM | GI50 (NCI-H460 lung) 54.6 µM and 37.9 µM | GI50 (KM12 colon) > 100 µM and 53.2 µM | GI50 (TK-10 renal) > 100 µM | GI50 (T-47D breast) > 100 µM | GI50 (NCI/ADR-RES ovarian) > 100 µM | GI50 (HT29 colon) > 100 µM and 38.1 µM | GI50 (HL-60(TB) leukemia) > 21.5 µM | GI50 (IGROV1 ovarian) > 100 µM and 23.3 µM | GI50 (MDA-MB-231 breast) > 100 µM and 58.8 µM | GI50 (OVCAR-3 ovarian) > 100 µM | GI50 (NCI-H23 lung) > 100 µM | GI50 (SN12C renal) > 100 µM | GI50 (OVCAR-8 ovarian) > 100 µM | GI50 (HOP-92 NSCLC) > 100 µM | GI50 (OVCAR-5 ovarian) > 100 µM | GI50 (MDA-MB-435) > 100 µM | GI50 (OVCAR-4 ovarian) > 100 µM | GI50 (MCF7 breast) > 100 µM and 46.4 µM | GI50 (NCI-H226 lung) > 71.5 µM and 50.4 µM | GI50 (RXF 393 renal) > 100 µM | GI50 (CCRF-CEM leukemia) 50.6 µM | GI50 (UACC-257 melanoma) > 100 µM | GI50 (MALME-3M melanoma) > 100 µM | GI50 (HCC-2998 colon) > 100 µM | GI50 (SK-MEL-2 melanoma) > 100 µM and 76.6 µM | GI50 (M14 melanoma) > 100 µM | GI50 (SR leukemia) 75.9 µM | GI50 (ACHN renal) > 100 µM | GI50 (COLO 205 colon) > 100 µM and 51.5 µM | GI50 (NCI-H522 lung) > 100 µM and 44.7 µM | GI50 (SK-OV-3 ovarian) > 100 µM | GI50 (HCT-116 colon) > 100 µM and 27.1 µM | GI50 (SF-268 CNS) > 100 µM | GI50 (A549 NSCLC) > 100 µM and 54.1 µM | GI50 (UO-31 renal) > 100 µM
> 100 µM and 80.2 µM: TGI (IGROV1 ovarian)
> 100 µM: TGI (SW-620 colon) | TGI (UACC-62 melanoma) | TGI (CAKI-1 renal) | TGI (RPMI-8226 leukemia) | TGI (786-0 renal) | TGI (SK-MEL-5 melanoma) | TGI (EKVX NSCLC) | TGI (BT-549 breast) | TGI (K-562 leukemia) | TGI (U251 CNS) | TGI (HCT-15 colon) | TGI (MOLT-4 leukemia) | TGI (PC-3 prostate) | TGI (SF-295 CNS) | TGI (SNB-19 CNS) | TGI (A498 renal) | TGI (HS 578T breast) | TGI (SF-539 CNS) | TGI (SK-MEL-28 melanoma) | TGI (HOP-62 NSCLC) | TGI (DU-145 prostate) | TGI (LOX IMVI melanoma) | TGI (NCI-H460 lung) | TGI (KM12 colon) | TGI (TK-10 renal) | TGI (T-47D breast) | TGI (NCI/ADR-RES ovarian) | TGI (HT29 colon) | TGI (MDA-MB-231 breast) | TGI (OVCAR-3 ovarian) | TGI (NCI-H23 lung) | TGI (SN12C renal) | TGI (OVCAR-8 ovarian) | TGI (HOP-92 NSCLC) | TGI (OVCAR-5 ovarian) | TGI (MDA-MB-435) | TGI (OVCAR-4 ovarian) | TGI (MCF7 breast) | TGI (NCI-H226 lung) | TGI (RXF 393 renal) | TGI (CCRF-CEM leukemia) | TGI (UACC-257 melanoma) | TGI (MALME-3M melanoma) | TGI (HCC-2998 colon) | TGI (SK-MEL-2 melanoma) | TGI (M14 melanoma) | TGI (SR leukemia) | TGI (ACHN renal) | TGI (COLO 205 colon) | TGI (NCI-H522 lung) | TGI (SK-OV-3 ovarian) | TGI (SF-268 CNS) | TGI (A549 NSCLC) | TGI (UO-31 renal)
